“And” between values parts separate entries of the source, which are not always exact repeats. Equal entries are not always repeated.
How the values were obtained:
MLL1 = MLL1 (Homo sapiens, UniProt Q03164); assay: HMT selectivity panel; settings: MLL1, 50 µM compound
Text: (§1) mM DTT and 0.01% Triton X-100 was used in experiments containing core histone.

NSD3 = NSD3 (Homo sapiens, UniProt Q9BZ95); assay: HMT selectivity panel; settings: NSD3, 50 µM compound
Text: as §1

K562 cells [1] = assay: Flow cytometry of CD11B expression (differentiation); format: cell-based, human; settings: for K562 % CD11B+ cells: 7 days
Procedure: In addition, 1 × 10^5 cells per sample were stained with Zombie Aqua™ dye (1:100 dilution) for 15 min using the Zombie Aqua™ Fixable Viability Kit (Zombie Aqua™ Fixable Viability Kit, Biolegend®) […] and then for 30 min with an anti-CD11B-PE antibody (982606, ICRF44, Biolegend®) or anti-CD11B-Pacific Blue (101224, BD BioLegend) antibody at 1:50 dilution, according to the No-wash Sequential Staining Protocol described by the manufacturer (BioLegend, Zombie Aqua Fixable Viability Kit). Cells were washed twice with 500 µL PBS containing 1% FBS and resuspended in 200 µL PBS with 1% FBS.

NSD2 = NSD2 (Homo sapiens, UniProt O96028); assay: HMT selectivity panel; settings: NSD2, 50 µM compound
Text: as §1

[2] = tested on: MV4;11 leukemic blasts (human CD45+ cells) in NSG mice; assay: Flow cytometry of hCD45+ cells in spleen and peripheral blood; format: in vivo, mouse
Procedure: Red blood cells were lysed with ACK lysis buffer (10-548E, Lonza). Up to 100,000 cells were washed in PBS (with 1% FBS) and stained with the anti–human CD45-BV421 antibody (563879, HI30, BD Biosciences) at 1:50 dilution for 30 min.

EZH2 = EZH2 (Homo sapiens, UniProt Q15910); assay: HMT selectivity panel; settings: EZH2, 50 µM compound
Procedure: as §1
experiments containing nucleosome.
G9a 5 core histone 0.05 mg/mL 1
GLP 5 core histone 0.05 mg/mL 1

K562 cells [3] = assay: Annexin V apoptosis assay (flow cytometry); format: cell-based, human; settings: for K562 % Annexin V/PI+ cells: 7 days
PRDM9 = PRDM9 (Homo sapiens, UniProt Q9NQV7); assay: HMT selectivity panel; settings: PRDM9, 50 µM compound
Text: as §1

SMYD2 = SMYD2 (Homo sapiens, UniProt Q9NRG4); assay: HMT selectivity panel; settings: SMYD2, 50 µM compound
Text: (§2) Assay conditions for selectivity experiments with a panel of histone
as §1

G9a = G9a (Homo sapiens, UniProt Q96KQ7); assay: HMT selectivity panel; settings: 50 µM compound
Procedure: as §1
experiments containing nucleosome.
G9a 5 core histone 0.05 mg/mL 1
GLP 5 core histone 0.05 mg/mL 1

[4] = Effect on normal hematopoiesis: complete blood counts and blood parameters
Procedure: At the end point of the experiment blood samples were collected, processed and analyzed for complete blood counts (CBC) and to assess populations of myeloid (CD11b + /Gr-1 + ), B- (B220 + /CD19 + ), and T- (CD3 + ) cells using flow cytometry. […] The analysis of CBC and other blood parameters was performed by the ULAM Animal Diagnostic Laboratory using Element HT5 (HESKA).
(a) Analysis of blood cell counts in
blood cells, RBC – red blood cells, NEU – neutrophiles, LYM – lymphocytes. MONO –
monocytes, EOS – eosinophils, BAS - basophils, PLT - platelets) and other blood parameters (Hgb
– Hemoglobin, HCT- Hematocrit, MCV – Mean corpuscular volume, MCH - Mean corpuscular
hemoglobin, MCHC - Mean corpuscular hemoglobin concentration, RDW – Red cell distribution
(1 picture or pasted object on this page, not shown here)

GLP = GLP (Homo sapiens, UniProt Q9H9B1); assay: HMT selectivity panel; settings: 50 µM compound
Procedure: as §1
experiments containing nucleosome.
G9a 5 core histone 0.05 mg/mL 1
GLP 5 core histone 0.05 mg/mL 1

PRMT3 = PRMT3 (Homo sapiens, UniProt O60678); assay: HMT selectivity panel; settings: PRMT3, 50 µM compound
Text: as §1

PRMT6 = PRMT6 (Homo sapiens, UniProt Q96LA8); assay: HMT selectivity panel; settings: PRMT6, 50 µM compound
Text: as §1

[5] = Body weight during treatment in the MV4;11 model
Procedure: Briefly, the 8- to 10-week old female NSG mice (Jackson Laboratory) were intravenously injected with 5 × 10^6 luciferase-expressing MV4;11 cells (received from Dr. Thomas Look, Dana Farber Cancer Institute). […] For imaging, mice were kept anesthetized with isoflurane, and 50 mg/kg luciferin (E1603, Promega) was administered by intraperitoneal injection. Photonic emission was imaged using the in Vivo Imaging System BLI (IVIS, 200) with total imaging time of 10 s for each mouse.
Measurements are reference to the values obtained at the first day of treatment, which were set as

SUV39H2 = SUV39H2 (Homo sapiens, UniProt Q9H5I1); assay: HMT selectivity panel; settings: SUV39H2, 50 µM compound
Text: as §2, §1

[6] = tested on: panel of 20 histone methyltransferases; assay: Panel of 20 histone methyltransferases as a whole; settings: 50 µM
Procedure: as §1
experiments containing nucleosome.
G9a 5 core histone 0.05 mg/mL 1
GLP 5 core histone 0.05 mg/mL 1

[7] = Effect on normal hematopoiesis: flow cytometry of myeloid, B- and T-cells in blood; format: in vivo
Text: width, MPV – Mean platelet volume). n = 9 mice / group. Mean +/- SD. b) Flow cytometry analysis […]
assess the effect on myeloid, B- and T-cells. Statistical significance calculated us ing unpaired 2-tailed t-test. n = 9 mice / group. Mean +/- SD. ns - not significant. (c) Representative gating strategy corresponding to the Supplementary Figure 12b for quantification of myeloid, B- and T-cells in blood samples of mice treated with vehicle or AS-99. SSC-A – side scatter area; FSC-A – forward scatter area; FSC-H – forward scatter height.

[8] = tested on: human CD34+ cells from cord blood; assay: Colony-forming assay with normal hematopoietic progenitor cells; settings: 7 days
Procedure: The experiment was performed twice. […] Mean ± SD, n = 3 biological replicates. […] Two independent experiments were performed in triplicates. Representative graphs are shown. *P < 0.05; **P < 0.01; ****P < 0.0001; NS not significant.

[9] = individual mice, after last day of treatment, 30 mg/kg q.d. i.p., 30 mg/kg
[10] = Fig S12a, individual mice, AS-99 group
[11] = normal mice, 30 mg/kg, i.p., q.d., 14 days
[12] = Fig S12b, individual mice, AS-99 group

PRDM9, sequence (Q9NQV7 whole entry, species assumed): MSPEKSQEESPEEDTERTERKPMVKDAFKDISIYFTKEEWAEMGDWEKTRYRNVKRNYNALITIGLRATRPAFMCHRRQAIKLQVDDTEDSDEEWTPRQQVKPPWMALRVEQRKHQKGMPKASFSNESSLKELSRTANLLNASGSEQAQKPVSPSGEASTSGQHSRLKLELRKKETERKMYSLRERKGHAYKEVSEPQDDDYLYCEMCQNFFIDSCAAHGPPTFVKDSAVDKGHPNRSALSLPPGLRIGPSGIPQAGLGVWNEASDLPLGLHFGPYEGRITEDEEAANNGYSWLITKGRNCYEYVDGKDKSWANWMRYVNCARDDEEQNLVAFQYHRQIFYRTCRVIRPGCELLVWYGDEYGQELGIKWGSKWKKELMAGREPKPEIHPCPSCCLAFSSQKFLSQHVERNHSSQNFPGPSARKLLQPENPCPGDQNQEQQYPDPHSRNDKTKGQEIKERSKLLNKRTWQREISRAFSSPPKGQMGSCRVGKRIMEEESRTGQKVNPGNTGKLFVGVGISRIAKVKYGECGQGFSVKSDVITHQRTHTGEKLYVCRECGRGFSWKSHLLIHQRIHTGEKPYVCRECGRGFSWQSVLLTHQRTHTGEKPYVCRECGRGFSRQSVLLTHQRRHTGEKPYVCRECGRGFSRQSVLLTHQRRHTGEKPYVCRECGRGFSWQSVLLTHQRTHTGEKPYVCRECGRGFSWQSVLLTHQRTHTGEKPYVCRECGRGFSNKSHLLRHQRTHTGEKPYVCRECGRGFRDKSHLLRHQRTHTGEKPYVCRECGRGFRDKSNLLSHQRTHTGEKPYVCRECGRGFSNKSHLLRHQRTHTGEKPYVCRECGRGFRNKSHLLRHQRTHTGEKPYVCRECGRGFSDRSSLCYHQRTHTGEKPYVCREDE
NSD2, sequence (O96028 whole entry, species assumed): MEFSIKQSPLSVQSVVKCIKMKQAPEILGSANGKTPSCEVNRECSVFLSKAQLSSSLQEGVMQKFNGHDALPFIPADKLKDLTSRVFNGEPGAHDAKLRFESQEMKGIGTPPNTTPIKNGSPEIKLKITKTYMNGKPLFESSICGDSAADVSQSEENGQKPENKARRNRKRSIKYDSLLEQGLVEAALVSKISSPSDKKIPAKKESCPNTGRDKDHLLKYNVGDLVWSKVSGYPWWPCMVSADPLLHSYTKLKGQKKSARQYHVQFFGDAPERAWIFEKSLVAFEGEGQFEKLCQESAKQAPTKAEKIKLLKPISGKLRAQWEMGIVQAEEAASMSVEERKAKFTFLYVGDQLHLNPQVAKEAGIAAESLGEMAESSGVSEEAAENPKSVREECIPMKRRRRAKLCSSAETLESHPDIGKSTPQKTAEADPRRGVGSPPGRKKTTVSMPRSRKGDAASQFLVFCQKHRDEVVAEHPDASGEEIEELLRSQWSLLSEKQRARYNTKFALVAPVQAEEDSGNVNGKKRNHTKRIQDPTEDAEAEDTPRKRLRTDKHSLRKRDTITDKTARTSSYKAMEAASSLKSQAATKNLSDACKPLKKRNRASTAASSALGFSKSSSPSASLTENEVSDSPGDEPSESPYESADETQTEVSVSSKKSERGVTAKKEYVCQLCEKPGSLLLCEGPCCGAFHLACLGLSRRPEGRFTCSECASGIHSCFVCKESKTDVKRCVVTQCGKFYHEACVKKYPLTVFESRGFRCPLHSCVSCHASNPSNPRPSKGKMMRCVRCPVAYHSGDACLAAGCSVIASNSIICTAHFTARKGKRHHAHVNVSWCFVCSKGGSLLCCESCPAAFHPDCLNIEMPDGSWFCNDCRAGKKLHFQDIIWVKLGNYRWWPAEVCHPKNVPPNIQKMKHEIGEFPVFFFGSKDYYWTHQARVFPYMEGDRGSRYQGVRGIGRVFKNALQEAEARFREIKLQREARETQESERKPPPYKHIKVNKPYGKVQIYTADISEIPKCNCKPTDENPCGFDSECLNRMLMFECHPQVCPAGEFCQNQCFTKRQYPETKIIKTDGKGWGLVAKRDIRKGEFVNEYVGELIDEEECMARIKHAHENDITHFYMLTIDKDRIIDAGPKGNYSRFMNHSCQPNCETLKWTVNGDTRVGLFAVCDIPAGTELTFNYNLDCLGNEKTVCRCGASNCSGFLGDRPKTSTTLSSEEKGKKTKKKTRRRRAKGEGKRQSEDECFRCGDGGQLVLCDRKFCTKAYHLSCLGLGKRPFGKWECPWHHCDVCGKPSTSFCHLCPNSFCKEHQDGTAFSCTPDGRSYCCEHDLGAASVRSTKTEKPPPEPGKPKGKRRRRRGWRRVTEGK
EZH2, sequence (Q15910 whole entry, species assumed): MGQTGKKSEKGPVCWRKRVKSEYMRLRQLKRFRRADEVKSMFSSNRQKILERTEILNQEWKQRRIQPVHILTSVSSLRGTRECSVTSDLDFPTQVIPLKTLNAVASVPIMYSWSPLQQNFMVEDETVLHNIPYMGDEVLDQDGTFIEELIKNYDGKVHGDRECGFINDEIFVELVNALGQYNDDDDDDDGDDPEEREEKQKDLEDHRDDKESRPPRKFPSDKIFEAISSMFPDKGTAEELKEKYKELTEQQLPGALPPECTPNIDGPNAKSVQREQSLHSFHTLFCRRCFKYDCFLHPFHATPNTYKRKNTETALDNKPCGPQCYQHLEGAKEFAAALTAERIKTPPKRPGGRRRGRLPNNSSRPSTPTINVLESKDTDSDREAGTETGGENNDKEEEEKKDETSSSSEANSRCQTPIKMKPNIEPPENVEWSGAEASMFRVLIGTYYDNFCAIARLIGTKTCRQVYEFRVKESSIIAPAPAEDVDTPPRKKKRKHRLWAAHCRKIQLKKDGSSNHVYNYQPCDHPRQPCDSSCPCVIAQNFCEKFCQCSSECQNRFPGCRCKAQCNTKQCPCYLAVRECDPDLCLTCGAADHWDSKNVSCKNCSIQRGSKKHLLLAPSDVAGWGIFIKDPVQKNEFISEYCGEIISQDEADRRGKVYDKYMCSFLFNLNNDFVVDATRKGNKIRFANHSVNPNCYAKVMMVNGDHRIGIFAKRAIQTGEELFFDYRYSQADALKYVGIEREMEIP
EZH2, sequence (O75530 whole entry partner, species assumed): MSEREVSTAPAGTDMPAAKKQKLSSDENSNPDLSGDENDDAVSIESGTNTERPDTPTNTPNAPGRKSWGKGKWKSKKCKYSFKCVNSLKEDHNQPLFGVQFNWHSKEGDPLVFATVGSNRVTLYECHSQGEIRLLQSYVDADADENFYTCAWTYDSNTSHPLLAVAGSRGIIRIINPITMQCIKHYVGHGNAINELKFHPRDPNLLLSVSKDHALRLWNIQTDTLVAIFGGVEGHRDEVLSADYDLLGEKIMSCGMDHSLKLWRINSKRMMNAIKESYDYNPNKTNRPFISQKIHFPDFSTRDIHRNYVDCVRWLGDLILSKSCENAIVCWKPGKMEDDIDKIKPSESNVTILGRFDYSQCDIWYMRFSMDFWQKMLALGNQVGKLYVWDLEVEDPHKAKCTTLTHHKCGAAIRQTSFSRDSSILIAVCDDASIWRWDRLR
EZH2, sequence (Q15022 whole entry partner, species assumed): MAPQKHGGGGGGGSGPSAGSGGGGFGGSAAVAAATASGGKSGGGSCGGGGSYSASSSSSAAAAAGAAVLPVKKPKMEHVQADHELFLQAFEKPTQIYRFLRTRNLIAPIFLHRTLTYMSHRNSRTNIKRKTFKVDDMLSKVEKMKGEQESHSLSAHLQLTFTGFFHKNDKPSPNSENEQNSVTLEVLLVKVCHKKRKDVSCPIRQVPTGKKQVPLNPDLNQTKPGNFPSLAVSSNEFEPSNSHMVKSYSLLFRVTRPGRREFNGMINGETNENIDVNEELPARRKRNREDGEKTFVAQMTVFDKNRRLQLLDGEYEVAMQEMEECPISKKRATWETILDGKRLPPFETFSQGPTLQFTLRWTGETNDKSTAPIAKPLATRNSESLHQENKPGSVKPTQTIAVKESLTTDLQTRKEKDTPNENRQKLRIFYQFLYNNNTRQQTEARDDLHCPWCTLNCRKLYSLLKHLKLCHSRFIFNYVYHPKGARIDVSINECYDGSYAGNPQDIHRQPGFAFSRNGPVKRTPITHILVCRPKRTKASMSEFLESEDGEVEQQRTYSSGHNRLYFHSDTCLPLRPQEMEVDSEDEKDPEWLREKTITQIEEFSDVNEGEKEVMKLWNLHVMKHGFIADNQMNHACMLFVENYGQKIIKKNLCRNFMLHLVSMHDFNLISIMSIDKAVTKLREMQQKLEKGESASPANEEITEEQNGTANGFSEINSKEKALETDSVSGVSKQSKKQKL
SMYD2, sequence (Q9NRG4 whole entry, species assumed): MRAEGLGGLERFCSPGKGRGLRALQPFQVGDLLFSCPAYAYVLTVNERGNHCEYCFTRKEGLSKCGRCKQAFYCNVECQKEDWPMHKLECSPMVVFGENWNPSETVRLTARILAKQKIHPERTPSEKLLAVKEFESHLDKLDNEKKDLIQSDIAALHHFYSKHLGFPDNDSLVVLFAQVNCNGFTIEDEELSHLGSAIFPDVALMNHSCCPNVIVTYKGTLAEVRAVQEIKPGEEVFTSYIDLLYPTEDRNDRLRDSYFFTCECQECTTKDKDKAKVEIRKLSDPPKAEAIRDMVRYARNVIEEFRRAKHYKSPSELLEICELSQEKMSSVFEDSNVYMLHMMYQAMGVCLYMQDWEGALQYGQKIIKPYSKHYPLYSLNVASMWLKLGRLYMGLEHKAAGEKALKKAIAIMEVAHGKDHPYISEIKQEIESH
SUV39H2, sequence (Q9H5I1 whole entry, species assumed): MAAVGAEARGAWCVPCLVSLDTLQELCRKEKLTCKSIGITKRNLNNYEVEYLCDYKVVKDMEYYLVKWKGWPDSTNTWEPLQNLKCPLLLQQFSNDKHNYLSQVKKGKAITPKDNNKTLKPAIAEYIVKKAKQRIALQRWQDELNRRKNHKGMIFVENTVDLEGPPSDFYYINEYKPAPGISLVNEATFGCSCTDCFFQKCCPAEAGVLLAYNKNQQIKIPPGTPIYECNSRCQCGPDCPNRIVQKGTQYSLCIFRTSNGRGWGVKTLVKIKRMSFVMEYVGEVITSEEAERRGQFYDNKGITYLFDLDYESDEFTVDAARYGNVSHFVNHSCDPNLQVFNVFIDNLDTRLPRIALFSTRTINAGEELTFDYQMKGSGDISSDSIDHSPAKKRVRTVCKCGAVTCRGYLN

CN1CC(C(=O)NCc2ccc3c(-c4cccc(C(N)=S)c4)cn(C4CCN(S(=O)(=O)C(F)(F)F)CC4)c3c2)C1 [AS-99]
activity at 50 µM (MLL1): 50%
% activity (MLL1; 50 µM): 69.7738%
activity at 50 µM (NSD3): 145%
% activity (NSD3; 50 µM): 128.837%
K562 % CD11B+ cells (K562 cells [1]; 2 uM): 0.43% and 0.58% and 0.36%
K562 % CD11B+ cells (K562 cells [1]; 4 uM): 0.34% and 0.52% and 0.4%
K562 % CD11B+ cells (K562 cells [1]; 6 uM): 0.56% and 0.39% and 0.38%
K562 % CD11B+ cells (K562 cells [1]; 8 uM): 0.73% and 0.97% and 0.76%
differentiation effects in K562 (K562 cells [1]; control leukemia cell line): not observed
activity at 50 µM (NSD2): 92.1%
% activity (NSD2; 50 µM): 101.756%
hCD45+ % in PB [2, 9]: 6.6% and 0.44% and 0.41% and 0.23% and 0.21% and 0.19%
hCD45+ % in spleen [2, 9]: 2.39% and 0.79% and 1.14% and 1.53% and 0.61% and 1.12% and 0.041%
level of leukemic blasts (human CD45+ cells) in peripheral blood and spleen ([2]; last day of treatment): significantly lower level
activity at 50 µM (EZH2): 101%
% activity (EZH2; 50 µM): 119.029%
apoptosis in K562 cells (K562 cells [3]): not in the K562 cells
K562 % Annexin V/PI+ cells (K562 cells [3]; 2 uM): 10.85% and 7.41% and 3.78%
K562 % Annexin V/PI+ cells (K562 cells [3]; 4 uM): 7.07% and 5.34% and 5.33%
K562 % Annexin V/PI+ cells (K562 cells [3]; 6 uM): 4.92% and 4.78% and 6.63%
K562 % Annexin V/PI+ cells (K562 cells [3]; 8 uM): 5.64% and 10.26% and 7.32%
activity at 50 µM (PRDM9): 96.8%
% activity (PRDM9; 50 µM): 100.979%
% activity (SMYD2): 79.4042% and 102.085%
activity at 50 µM (G9a): 90.9%
% activity (G9a; 50 µM): 91.9579%
BAS [4, 10]: 0.02 x 103/uL (2×) and 0.03 x 103/uL (4×) and 0.01 x 103/uL (2×) and 0 x 103/uL
EOS [4, 10]: 270 µL⁻¹ and 470 µL⁻¹ and 320 µL⁻¹ and 390 µL⁻¹ and 650 µL⁻¹ and 300 µL⁻¹ and 100 µL⁻¹ and 450 µL⁻¹ and 360 µL⁻¹
HCT [4, 10]: 41.9% and 39.7% and 28.7% and 46% and 40.3% and 29.4% and 10.7% and 42.8% and 41.4%
HGB [4, 10]: 13.7 g/dL and 13.1 g/dL and 9.8 g/dL and 15.6 g/dL and 13.9 g/dL and 10.1 g/dL and 3.6 g/dL and 14.6 g/dL and 14 g/dL
LYM [4, 10]: 4070 µL⁻¹ and 5890 µL⁻¹ and 4140 µL⁻¹ and 5390 µL⁻¹ and 6000 µL⁻¹ and 3920 µL⁻¹ and 1230 µL⁻¹ and 6280 µL⁻¹ and 5970 µL⁻¹
MCH [4, 10]: 14.8 Pg and 15 Pg (2×) and 15.6 Pg (3×) and 14.9 Pg and 15.4 Pg and 16.2 Pg
MCHC [4, 10]: 32.8 g/dL and 33.1 g/dL and 34.1 g/dL (2×) and 33.9 g/dL and 34.4 g/dL (2×) and 34 g/dL and 33.8 g/dL
MCV [4, 10]: 45.2 fL (3×) and 45.4 fL and 45.8 fL and 44 fL and 43.6 fL and 45.7 fL and 48 fL
MONO [4, 10]: 0.17 x 103/uL and 0.23 x 103/uL (2×) and 0.12 x 103/uL and 0.28 x 103/uL (2×) and 0.11 x 103/uL and 0.05 x 103/uL and 0.2 x 103/uL
MPV [4, 10]: 5 fL (2×) and 5.5 fL and 5.9 fL and 5.1 fL and 5.4 fL (2×) and 5.6 fL and 4.8 fL
NEU [4, 10]: 970 µL⁻¹ and 1680 µL⁻¹ and 1330 µL⁻¹ and 2070 µL⁻¹ and 1910 µL⁻¹ and 1210 µL⁻¹ and 630 µL⁻¹ and 1870 µL⁻¹ and 1770 µL⁻¹
PLT [4, 10]: 1548 K/uL and 1435 K/uL and 1241 K/uL and 1545 K/uL and 1340 K/uL and 938 K/uL and 317 K/uL and 1303 K/uL and 1383 K/uL
RBC [4, 10]: 9.27 M/uL and 8.74 M/uL and 6.26 M/uL and 10.46 M/uL and 9.24 M/uL and 6.5 M/uL and 2.36 M/uL and 9.37 M/uL and 8.63 M/uL
RDW [4, 10]: 14.4% and 15.6% and 15.4% and 13.5% and 14.9% and 13.9% and 14.7% and 14.8% and 18.3%
WBC [4, 10]: 5.5 k/uL and 8.3 k/uL and 5.92 k/uL and 8.1 k/uL and 8.87 k/uL and 5.55 k/uL and 2.01 k/uL and 8.91 k/uL and 8.33 k/uL
blood counts and other blood parameters versus vehicle [4, 11]: no significant difference
activity at 50 µM (GLP): 101%
% activity (GLP; 50 µM): 119.954%
activity at 50 µM (PRMT3): 106%
% activity (PRMT3; 50 µM): 114.852%
activity at 50 µM (PRMT6): 105%
% activity (PRMT6; 50 µM): 107.332%
toxicity during the treatment period ([5]; 30 mg/kg, i.p., q.d., 14 days): No substantial toxicity
body weight reduction ([5]; after 7 days of treatment, 30 mg/kg, i.p., q.d.): ~ 10%
normalized body weight change ([5]; days of treatment 1): 100
normalized body weight change ([5]; days of treatment 2): 95 and 98 and 97 and 96
normalized body weight change ([5]; days of treatment 3): 94 and 98 and 96 and 99 and 95 and 102
normalized body weight change ([5]; days of treatment 4): 95 and 96 and 97 and 100
normalized body weight change ([5]; days of treatment 5): 95 and 89 and 93 and 87 and 100
normalized body weight change ([5]; days of treatment 6): 90 and 100 and 94 and 87 and 93
normalized body weight change ([5]; days of treatment 7): 85 and 89 and 87 and 94
normalized body weight change ([5]; days of treatment 9): 91 and 93 and 95 and 87 and 90
normalized body weight change ([5]; days of treatment 10): 91 and 98 and 96 and 89 and 95 and 87
normalized body weight change ([5]; days of treatment 11): 91 and 96 and 94 and 97 and 100 and 99 and 89
normalized body weight change ([5]; days of treatment 12): 95 and 103 and 87 and 88
normalized body weight change ([5]; days of treatment 13): 89 and 95 and 94 and 96 and 105 and 90
activity at 50 µM (SUV39H2): 88.7%
% activity (SUV39H2; 50 µM): 78.6146%
inhibition of the tested HMTs [6]: no significant inhibition
B cells [7, 12]: 42.2% and 44% and 40.1% and 47.1% and 47.9% and 45.4% and 35.4% and 37.2% and 39.4%
Myeloid cells [7, 12]: 16.7% and 17.1% (2×) and 23.3% and 12.6% and 14.8% and 9.84% and 22.2% and 17.7%
T cells [7, 12]: 27.1% and 24.3% and 22.5% and 18.4% and 27% and 27.8% and 32.5% and 30% and 29.5%
T-cells [7, 11]: unaffected
myeloid and B-cells [7, 11]: slightly changed (increased and reduced, respectively)
effect on colony number or morphology [8]: no effect on colony number or morphology
colony counts ([8]; 3 uM): 70 and 68
colony counts ([8]; 6 uM): 86 and 64

From publication PMC8121805, “Discovery of first-in-class inhibitors of ASH1L histone methyltransferase with anti-leukemic activity” (Nature Communications, 2021)
